Laboratory results reported in patent US20250195521A1 (Revolution Medicines, Inc., priority 2020, published 2025).

Columns and labels:
[1] = target: K-Ras G12C(GMP-PNP) binding to BRAF RBD (Homo sapiens (Human), UniProt P01116+P62937, G12C); experiment: Disruption of BRAF RBD interaction with K-Ras (FRET / MOA assay), K-Ras G12C; type: biochemical; details: read-out: KRAS G12C FRET IC50
Summary of the method: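 Compounds promote ternary complex of nucleotide-loaded Ras (here K-Ras G12C·GMP-PNP; other Ras mutants substituted) with cyclophilin A, disrupting BRAF RBD binding. 10-point 3-fold series from 30 μM final, 3 h at 25 °C, then anti-His Eu (10 nM) and anti-GST APC (50 nM) for 1.5 h. TR-FRET ratio decrease versus DMSO gave IC50.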

[2] = tested on: Capan-1 cells (K-Ras G12V); experiment: CellTiter-Glo cell viability, Capan-1; type: cell-based, human; details: Homo sapiens, CAPAN-1, 120 h, K-Ras G12V, 5-day treatment; read-out: Capan-1 Cell Viability IC50
Summary of the method: (§1)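 Compounds dispensed directly onto seeded cells; on day 5 plates equilibrated ~30 min to room temperature and luminescence read. Signal normalized to DMSO average (%) and fitted by four-parameter logistic.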

NCI-H358 (K-Ras G12C) = experiment: CellTiter-Glo cell viability assay, NCI-H358; type: cell-based, human; details: Homo sapiens, NCI-H358, 120 h, 5-day treatment; read-out: H358 Cell Viability assay data (K-Ras G12C, IC50)
Summary of the method: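 NCI-H358 (K-Ras G12C) cells treated with compound dispensed directly into plates. CellTiter-Glo luminescence read on day 5 after ~30 min equilibration to room temperature. Signal normalised to DMSO average ×100, then fitted with a four-parameter logistic model.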

[3] = tested on: NCI-H358 cells (K-Ras G12C); experiment: CellTiter-Glo cell viability, NCI-H358; type: cell-based, human; details: Homo sapiens, NCI-H358, 120 h, K-Ras G12C, 5-day treatment; read-out: H358 Cell Viability IC50
Summary of the method: as §1

KRAS G12S = KRAS G12S (Homo sapiens (Human), UniProt P01116+P62937, G12S); experiment: Ras-Raf disruption/FRET/MOA assay (BRAF RBD, Cyclophilin A); type: biochemical; details: read-out: KRAS G12S FRET IC50
Summary of the method: (§2)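 TR-FRET read after 1.5 h with 10 nM anti-His Eu-W1024 and 50 nM anti-GST APC, following 3 h at 25 °C of GMPPNP-loaded His6-Ras (12.5 nM), GST-BRAF RBD (50 nM) and Cyclophilin A (25 μM) with compound from 30 μM final, 10 points, 3-fold. IC50 reported; pH 7.3 HEPES, 100 mM NaCl.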

KRAS WT = KRAS WT (Homo sapiens (Human), UniProt P01116+P62937); experiment: as above; type: biochemical; details: read-out: KRAS WT FRET data IC50
Summary of the method: as §2

KRAS G12V = KRAS G12V (Homo sapiens (Human), UniProt P01116+P62937, G12V); experiment: as above; type: biochemical; details: read-out: KRAS G12V FRET IC50
Summary of the method: as §2

KRAS G13C = KRAS G13C (Homo sapiens (Human), UniProt P01116+P62937, G13C); experiment: as above; type: biochemical; details: read-out: KRAS G13C FRET IC50
Summary of the method: as §2

NRAS G12C = NRAS G12C (Homo sapiens (Human), UniProt P01111+P62937, G12C); experiment: as above; type: biochemical; details: read-out: NRAS G12C FRET data IC50
Summary of the method: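 First, 25 μM Cyclophilin A, 12.5 nM His6-Ras-GMPPNP and 50 nM GST-BRAF RBD are mixed with diluted compound at pH 7.3. Next, 3 h at 25° C. Then 10 nM anti-His Eu-W1024 plus 50 nM anti-GST allophycocyanin for 1.5 h before TR-FRET reading.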

KRAS G12C = KRAS G12C (Homo sapiens (Human), UniProt P01116+P62937, G12C); experiment: as above; type: biochemical; details: read-out: KRAS G12C FRET IC50
Summary of the method: as §2

KRAS G13D = KRAS G13D (Homo sapiens (Human), UniProt P01116+P62937, G13D); experiment: as above; type: biochemical; details: read-out: KRAS G13D FRET data IC50
Summary of the method: as §2

KRAS G12D = KRAS G12D (Homo sapiens (Human), UniProt P01116+P62937, G12D); experiment: as above; type: biochemical; details: read-out: KRAS G12D FRET IC50
Summary of the method: as §2

Chain of KRAS G13D (P01116 other isoform, or with tags, fused parts or gaps G13D): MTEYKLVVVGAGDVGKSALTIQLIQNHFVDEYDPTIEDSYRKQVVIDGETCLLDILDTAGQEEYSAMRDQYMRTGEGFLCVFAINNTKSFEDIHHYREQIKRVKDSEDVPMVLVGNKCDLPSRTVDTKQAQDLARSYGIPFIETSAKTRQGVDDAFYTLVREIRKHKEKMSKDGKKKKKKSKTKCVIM
Chain of KRAS G13D (P62937 whole entry): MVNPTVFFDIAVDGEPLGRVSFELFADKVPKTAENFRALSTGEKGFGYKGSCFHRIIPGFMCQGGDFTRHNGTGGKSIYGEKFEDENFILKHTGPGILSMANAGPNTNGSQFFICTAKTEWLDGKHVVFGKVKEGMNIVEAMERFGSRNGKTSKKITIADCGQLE
Chain of K-Ras G12C(GMP-PNP) binding to BRAF RBD (P01116 other isoform, or with tags, fused parts or gaps G12C): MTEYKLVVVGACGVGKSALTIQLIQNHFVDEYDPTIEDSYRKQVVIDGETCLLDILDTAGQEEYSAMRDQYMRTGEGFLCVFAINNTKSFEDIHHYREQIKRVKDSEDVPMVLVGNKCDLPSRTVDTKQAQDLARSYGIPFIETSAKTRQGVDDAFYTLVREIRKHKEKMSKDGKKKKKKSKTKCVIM
Chain of K-Ras G12C(GMP-PNP) binding to BRAF RBD (P62937 whole entry): as the sequence (P62937 whole entry) above
Chain of KRAS G12S (P01116 other isoform, or with tags, fused parts or gaps G12S): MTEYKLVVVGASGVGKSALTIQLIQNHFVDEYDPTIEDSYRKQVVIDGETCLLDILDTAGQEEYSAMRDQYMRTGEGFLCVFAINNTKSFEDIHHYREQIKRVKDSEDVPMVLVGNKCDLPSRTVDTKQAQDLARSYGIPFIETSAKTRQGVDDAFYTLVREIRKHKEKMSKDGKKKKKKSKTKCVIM
Chain of KRAS G12S (P62937 whole entry): as the sequence (P62937 whole entry) above
Chain of KRAS G12D (P01116 other isoform, or with tags, fused parts or gaps G12D): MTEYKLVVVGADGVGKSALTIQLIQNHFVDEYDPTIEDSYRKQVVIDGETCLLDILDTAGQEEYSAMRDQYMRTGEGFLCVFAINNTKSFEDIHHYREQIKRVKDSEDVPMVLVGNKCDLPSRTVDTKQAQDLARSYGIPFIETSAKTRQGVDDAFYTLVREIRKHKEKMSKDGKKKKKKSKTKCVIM
Chain of KRAS G12D (P62937 whole entry): as the sequence (P62937 whole entry) above
Chain of KRAS G12C (P01116-2 other isoform, or with tags, fused parts or gaps G12C): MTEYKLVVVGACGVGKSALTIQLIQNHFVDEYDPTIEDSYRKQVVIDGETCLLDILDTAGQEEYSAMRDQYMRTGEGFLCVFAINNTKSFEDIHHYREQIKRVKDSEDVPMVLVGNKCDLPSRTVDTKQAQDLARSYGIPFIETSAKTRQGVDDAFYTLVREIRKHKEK
Chain of KRAS G12C (P62937 whole entry): as the sequence (P62937 whole entry) above
Chain of KRAS G12V (P01116 other isoform, or with tags, fused parts or gaps G12V): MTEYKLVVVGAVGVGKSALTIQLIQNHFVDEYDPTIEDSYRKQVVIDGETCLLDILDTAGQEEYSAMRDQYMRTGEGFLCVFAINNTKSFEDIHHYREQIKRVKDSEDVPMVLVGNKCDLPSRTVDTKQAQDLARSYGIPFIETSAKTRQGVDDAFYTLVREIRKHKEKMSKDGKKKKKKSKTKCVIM
Chain of KRAS G12V (P62937 whole entry): as the sequence (P62937 whole entry) above
Chain of KRAS WT (P01116 other isoform, or with tags, fused parts or gaps): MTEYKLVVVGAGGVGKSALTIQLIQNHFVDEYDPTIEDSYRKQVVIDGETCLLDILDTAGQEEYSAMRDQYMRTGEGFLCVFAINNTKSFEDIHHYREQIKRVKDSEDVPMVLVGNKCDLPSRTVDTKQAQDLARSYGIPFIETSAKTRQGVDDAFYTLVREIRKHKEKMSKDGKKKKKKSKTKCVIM
Chain of KRAS WT (P62937 whole entry): as the sequence (P62937 whole entry) above
Chain of NRAS G12C (P01111 whole entry G12C): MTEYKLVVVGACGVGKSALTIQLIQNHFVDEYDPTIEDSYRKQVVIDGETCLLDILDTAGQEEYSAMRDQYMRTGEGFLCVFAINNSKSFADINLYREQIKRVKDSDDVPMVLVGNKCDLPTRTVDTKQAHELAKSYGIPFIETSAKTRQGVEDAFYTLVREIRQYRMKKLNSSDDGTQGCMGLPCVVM
Chain of NRAS G12C (P62937 whole entry): as the sequence (P62937 whole entry) above
Chain of KRAS G13C (P01116 other isoform, or with tags, fused parts or gaps G13C): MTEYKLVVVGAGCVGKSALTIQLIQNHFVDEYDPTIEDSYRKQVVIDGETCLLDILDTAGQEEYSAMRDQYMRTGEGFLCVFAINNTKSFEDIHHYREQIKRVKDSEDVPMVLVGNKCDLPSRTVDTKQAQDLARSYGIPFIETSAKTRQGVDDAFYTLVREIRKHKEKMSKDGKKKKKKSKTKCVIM
Chain of KRAS G13C (P62937 whole entry): as the sequence (P62937 whole entry) above

SMILES | IC50 [1] | IC50 [2] | IC50 (NCI-H358 (K-Ras G12C)) | IC50 [3] | IC50 (KRAS G12S) | IC50 (KRAS WT) | IC50 (KRAS G12V) | IC50 (KRAS G13C) | IC50 (NRAS G12C) | IC50 (KRAS G12C) | IC50 (KRAS G13D) | IC50 (KRAS G12D)
CCn1c(-c2cccnc2[C@H](C)OC)c2c3cc(ccc31)-c1cc(O)cc(c1)C[C@H](NC(=O)[C@H](C(C)C)N(C)C(=O)[C@@H]1[C@H]3CC[C@H](C3)[C@@H]1N)C(=O)N1CCC[C@H](N1)C(=O)OCC(C)(C)C2 [Compound A417] | 10 to 100 nM | 1000 to 10000 nM | 10 to 100 nM | 100 to 1000 nM | 100 to 1000 nM | 100 to 1000 nM | 1000 to 10000 nM | 100 to 1000 nM | 100 to 1000 nM | 100 to 1000 nM | 100 to 1000 nM | 100 to 1000 nM
CCn1c(-c2cccnc2[C@H](C)OC)c2c3cc(ccc31)-c1csc(n1)C[C@H](NC(=O)[C@H](C(C)C)N(C)C(=O)N1CCO[C@@]3(CCN(C)C3)C1)C(=O)N1CCC[C@H](N1)C(=O)OCC(C)(C)C2 [Compound A436] | 10 to 100 nM | 10 to 100 nM | 10 to 100 nM | 10 to 100 nM | 100 to 1000 nM | 100 to 1000 nM | 100 to 1000 nM | 100 to 1000 nM | 10 to 100 nM | 100 to 1000 nM | 100 to 1000 nM | 100 to 1000 nM
CCn1c(-c2cc(N3CCN(C)CC3)cnc2[C@H](C)OC)c2c3cc(ccc31)-c1csc(n1)C[C@H](NC(=O)[C@H](C(C)C)N(C)C(=O)[C@@H]1CCCS1(=O)=O)C(=O)N1CCC[C@H](N1)C(=O)OCC(C)(C)C2 [Compound A440] | 10 to 100 nM | 10 to 100 nM | < 10 nM | 10 to 100 nM | 1000 to 10000 nM | 100 to 1000 nM | 1000 to 10000 nM | 1000 to 10000 nM | 100 to 1000 nM | 100 to 1000 nM | 1000 to 10000 nM | 1000 to 10000 nM
CCn1c(-c2cccnc2[C@H](C)OC)c2c3cc(ccc31)-c1csc(n1)C[C@H](NC(=O)[C@H](C(C)C)N(C)C(=O)N1C[C@@H]3OCCN(C)[C@@H]3C1)C(=O)N1CCC[C@H](N1)C(=O)OCC(C)(C)C2 [Compound A444] | 10 to 100 nM | 10 to 100 nM | < 10 nM | 10 to 100 nM | 100 to 1000 nM | 100 to 1000 nM | 100 to 1000 nM | 100 to 1000 nM | 10 to 100 nM | 10 to 100 nM | 100 to 1000 nM | 100 to 1000 nM
CCn1c(-c2cccnc2[C@H](C)OC)c2c3cc(ccc31)-c1csc(n1)C[C@H](NC(=O)[C@H](C(C)C)N(C)C(=O)N1C[C@H]3CN(C)CC[C@H]31)C(=O)N1CCC[C@H](N1)C(=O)OCC(C)(C)C2 [Compound A462] | 100 to 1000 nM | 100 to 1000 nM | < 10 nM | 100 to 1000 nM | 1000 to 10000 nM | 1000 to 10000 nM | 1000 to 10000 nM | 100 to 1000 nM | 100 to 1000 nM | 100 to 1000 nM | 1000 to 10000 nM | 1000 to 10000 nM
CCn1c(-c2cccnc2[C@H](C)OC)c2c3cc(ccc31)-c1csc(n1)C[C@H](NC(=O)[C@H](C(C)C)N(C)C(=O)N1CCC[C@H](N(C)C)CC1)C(=O)N1CCC[C@H](N1)C(=O)OCC(C)(C)C2 [Compound A493] | 10 to 100 nM | 100 to 1000 nM | < 10 nM | 10 to 100 nM | 100 to 1000 nM | 10 to 100 nM | 100 to 1000 nM | 100 to 1000 nM | 10 to 100 nM | 10 to 100 nM | 100 to 1000 nM | 100 to 1000 nM
CCn1c(-c2cccnc2[C@H](C)OC)c2c3cc(ccc31)-c1csc(n1)C[C@H](NC(=O)[C@H](C(C)C)N(C)C(=O)N(C)C1(C)COC1)C(=O)N1CCC[C@H](N1)C(=O)OCC(C)(C)C2 [Compound A527] | < 10 nM | 10 to 100 nM | < 10 nM | 10 to 100 nM | 100 to 1000 nM | 100 to 1000 nM | 1000 to 10000 nM | 1000 to 10000 nM | 100 to 1000 nM | 100 to 1000 nM | 1000 to 10000 nM | 1000 to 10000 nM
CCn1c(-c2cccnc2[C@H](C)OC)c2c3cc(ccc31)-c1csc(n1)C[C@H](NC(=O)[C@H](C(C)C)N(C)C(=O)N1CC([C@H](C)COC)C1)C(=O)N1CCC[C@H](N1)C(=O)OCC(C)(C)C2 [Compound A533] | 10 to 100 nM | 10 to 100 nM | < 10 nM | 10 to 100 nM | 100 to 1000 nM | 100 to 1000 nM | 100 to 1000 nM | 100 to 1000 nM | 10 to 100 nM | 10 to 100 nM | 100 to 1000 nM | 100 to 1000 nM
CCn1c(-c2cccnc2[C@H](C)OC)c2c3cc(ccc31)-c1csc(n1)C[C@H](NC(=O)[C@H](C(C)C)N(C)C(=O)N1CCN3C(=O)CN(C)C[C@H]3C1)C(=O)N1CCC[C@H](N1)C(=O)OCC(C)(C)C2 [Compound A537] | 10 to 100 nM | 10 to 100 nM | < 10 nM | 10 to 100 nM | 10 to 100 nM | 10 to 100 nM | 100 to 1000 nM | 100 to 1000 nM | 10 to 100 nM | 10 to 100 nM | 100 to 1000 nM | 100 to 1000 nM
CCn1c(-c2cccnc2[C@H](C)OC)c2c3cc(ccc31)-c1csc(n1)C[C@H](NC(=O)[C@H](C(C)C)N(C)C(=O)N1CC([C@H](C)N(C)C)C1)C(=O)N1CCC[C@H](N1)C(=O)OCC(C)(C)C2 [Compound A538] | 10 to 100 nM | 10 to 100 nM | 10 to 100 nM | 10 to 100 nM | 100 to 1000 nM | 100 to 1000 nM | 100 to 1000 nM | 100 to 1000 nM | 10 to 100 nM | 10 to 100 nM | 100 to 1000 nM | 100 to 1000 nM
CCn1c(-c2cccnc2[C@H](C)OC)c2c3cc(ccc31)-c1csc(n1)C[C@H](NC(=O)[C@H](C(C)C)N(C)C(=O)N1CCCC13CN(C)C3)C(=O)N1CCC[C@H](N1)C(=O)OCC(C)(C)C2 [Compound A545] | 10 to 100 nM | 100 to 1000 nM | 10 to 100 nM | 100 to 1000 nM | 100 to 1000 nM | 10 to 100 nM | 100 to 1000 nM | 100 to 1000 nM | 10 to 100 nM | 100 to 1000 nM | 100 to 1000 nM | 100 to 1000 nM
CCn1c(-c2cccnc2[C@H](C)OC)c2c3cc(ccc31)-c1cc(O)cc(c1)C[C@H](NC(=O)[C@H](C(C)C)N(C)C(=O)[C@@H]1OCC[C@H]1c1ccccc1)C(=O)N1CCC[C@H](N1)C(=O)OCC(C)(C)C2 [Compound A584] | 10 to 100 nM | 100 to 1000 nM | < 10 nM | 10 to 100 nM | 10 to 100 nM | 10 to 100 nM | 10 to 100 nM | 10 to 100 nM | 10 to 100 nM | 10 to 100 nM | 10 to 100 nM | 10 to 100 nM
CCn1c(-c2cccnc2[C@H](C)OC)c2c3cc(ccc31)-c1csc(n1)C[C@H](NC(=O)[C@H](C(C)C)N(C)C(=O)N1CCN(C(=O)[C@@H]3CCCN3C)CC1)C(=O)N1CCC[C@H](N1)C(=O)OCC(C)(C)C2 [Compound A596] | 10 to 100 nM | 100 to 1000 nM | < 10 nM | 10 to 100 nM | 100 to 1000 nM | 10 to 100 nM | 100 to 1000 nM | 100 to 1000 nM | 10 to 100 nM | 10 to 100 nM | 100 to 1000 nM | 100 to 1000 nM
